Literature values as cited in patent US12004545B2, “Infant nutrition delivering metabolic benefits” (SOCIÉTÉ DES PRODUITS NESTLÉ S.A., priority 2016, dated 2024).

Details: value used in the GL calculation

| Structure (SMILES) | GI of ingredient (available CHO) |
| --- | --- |
| OC[C@H]1O[C@@H](O[C@H]2[C@H](O)[C@@H](O)C(O)O[C@@H]2CO)[C@H](O)[C@@H](O)[C@H]1O (some centres unmarked) [lactose] | 46 |
| OC[C@H]1O[C@@](CO)(O[C@H]2O[C@H](CO)[C@@H](O)[C@H](O)[C@H]2O)[C@@H](O)[C@@H]1O [sucrose] | 68 |
